Measurements as given in US8003096B2, “Means and methods for the recruitment and identification of stem cells” (Vlaams Interuniversitair Instituut voor Biotechnologie VZW, priority 2003, dated 2011).

Legend:
[1] = test system: hematopoietic progenitor cells (HPCs); assay: Circulating CFU-C assay on PB MNCs (mobilized HPCs); format: in vivo, mouse
Description: (§1) To study the role of the plasminogen proteinase system with its plasminogen activators tPA and uPA, and active plasmin in stem/progenitor cell mobilization, mice lacking plasminogen (Plg^−/−), tPA (tPA^−/−), uPA (uPA^−/−) and both activators (tPA^−/−uPA^−/−) were used.^(17, 18) Age- and sex-matched mice were kept in IVC cages. Mobilization was induced either via a single sublethal injection i.v. of the myeloablative agent 5-fluorouracil (5-FU, 200-250 mg/kg), or via administration s.c. of recombinant human G-CSF (Filgrastim, Amgen, 200 μg/kg/d) for five consecutive days.^(12) Peripheral blood (PB) samples were obtained by retro-orbital bleeding under light anesthesia. Full blood counts were determined on the Abbott Cell Dyn 1300 hemocytometer. The number of mobilized hematopoietic progenitor cells (HPCs) in the circulation was determined via methylcellulose-based CFU-C assays (MethoCult, Stem Cell Technologies), per 10^5 peripheral blood mononuclear cells (PB MNCs).^(12) The number of mobilized hematopoietic stem cells (HSCs) in the circulation was quantified via splenic colony-forming assays (CFU-S), and evaluated for long-term engraftment via transplantation into lethally irradiated syngeneic wild-type recipients (9.5 Gy total body irradiation). […]
Wild-type mice and mice lacking Plg, both tPA and uPA, tPA, uPA, uPAR, PAI-1, α2AP, MMP-2 (kind gift from S. Itohara), MMP-3 (kind gift from J. Mudgett), MMP-9, MMP-12 (kind gift from S. Shapiro), and TIMP-1 (obtained by courtesy of P. Soloway) were used, and housed in barrier cages (individually ventilated) (Heymans et al. (1999), Nat. Med. 5:1135-42). […] Peripheral blood was repetitively sampled by retro-orbital puncture under light anesthesia, and full blood counts (EDTA buffered) were determined on a hemocytometer (Abbott Cell Dyn 1300). Peripheral blood smears were stained using Giemsa-May-Grunwald and at least 200 cells were analyzed. […]

[2] = test system: hematopoietic stem cells (HSCs); assay: Splenic colony-forming assay CFU-S (mobilized HSCs); format: in vivo, mouse; conditions: WT mice
Description: as §1

circulating WBCs = assay: Circulating WBC counts (full blood counts) during mobilization; format: in vivo, mouse; conditions: WT mice
Description: as §1

BM MNCs (HPCs) = assay: Chemotaxis transwell assay, migrated HPCs scored as CFU-Cs; format: cell-based, mouse; conditions: factor in bottom well, overnight incubation; GM-CSF 100 ng/ml
Description: (§2) Mononuclear cells (MNCs) were prepared via Lympholiter-M (Cedarlane) and density centrifugation. For CFU-C assays, bone marrow cells (5×10^4), or PB MNCs (1×10^5 or 5×10^5) were plated in 35 mm dishes (Stem Cell Technologies) using methylcellulose supplemented with growth factors (MethoCult, Stem Cell Technologies), and colonies were blindly scored after seven and thirteen days, respectively, using an inverted microscope (Luttun et al. (2002), Nat. Med. 8:831-40). […] After five weeks of culture, cells were trypsinized, counted, plated in MethoCult, and CFU-Cs were scored after nine days. […] For CFU-S assays, lethal total body irradiation (9.0 to 9.5 Gy), and transplantation of mobilized PB MNCs (1 to 1.5×10^5) were performed in syngeneic recipients, survival was monitored or splenic colonies were blindly scored after twelve days using a dissection microscope. For bone marrow proliferation index, bone marrow cells from treated mice were plated in 96-well plates, CellTiter96 (Promega) was added, and repetitive colorimetric readings were performed at OD 490 nm. […] After overnight incubation, the migrated non-adherent cells in the bottom wells were collected, counted, plated in MethoCult and CFU-Cs were scored after twelve days.

HSCs = assay: Transplantation of mobilized PB MNCs into lethally irradiated WT recipients, survival; format: in vivo, mouse; conditions: donors WT mice treated with G-CSF and agent
Description: as §1

sKitL = sKitL levels in BM plasma (ELISA); format: in vivo, mouse; conditions: WT mice, after G-CSF
Description: BM extracellular fluid (BM plasma) from mice was obtained as described previously (Petit et al. (2002), Nat. Immunol. 3:687-94). BM plasma from healthy volunteers was obtained by using the first 10 ml of collection via puncture in the iliac crest under local anesthesia, and immediate anti-coagulation with EDTA. Protein extraction on BM cells was performed as described (Heymans et al. (1999), Nat. Med. 5:1135-42). Murine sKitL and SDF1α protein levels were quantified using commercial available ELISA (R&D Systems, Abingdon, UK). Murine plasminogen, and murine and human suPAR were quantified by home-made ELISA (Heymans et al. (1999), Nat. Med. 5:1135-42; Sier et al. (2004), Thromb. Haemost. 91:403-11). Lyophilized pertussis toxin was obtained from List Laboratories. MMP-2, MMP-9, and MMP-12 activities were measured using gelatin-zymography, uPA and MMP-3 activities were measured using casein-zymography, as described previously (Heymans et al. (1999), Nat. Med. 5:1135-42). Samples from gene-deficient mice were used as negative controls. Plasmin activity of BM plasma or cells (pericellular activity) was measured using substrate colorimetry (S2403), as described previously (Heymans et al. (1999), Nat. Med. 5:1135-42). Fibrinolytic activity was measured using a modified fluorescent-based in vitro clot lysis assay (Heymans et al. (1999), Nat. Med. 5:1135-42). Western blotting was performed on non-reduced samples, which were neutralized with a cocktail of protease inhibitors (Complete Inhibitor, Roche). ECM components/fragments were detected with antibodies against mouse fibronectin and laminin (Sigma), and human D1D2D3 and D2D3 (Andolfo et al. (1999), Thromb. Haemost. 88:298-306), secondary HRP-labeled antibodies (DAKO), and ECL detection system (Amersham Pharmacia).

HSCs in the BM = assay: HSCs in the BM, LTC-IC assay on AFT024 stromal feeder layers; format: in vivo, mouse; conditions: WT mice, after two days of treatment
Description: as §2

BM cells = assay: BM proliferation index; format: in vivo, mouse; conditions: G-CSF-treated, N=8
Description: In contrast, HSC translocation and HPC expansion in the bone marrow was completely abolished in G-CSF-treated Plg^−/− mice (FIG. 1, Panels j and k). […] Thus, plasminogen is required for stem/progenitor cell expansion during mobilization.
Mononuclear cells (MNCs) were prepared via Lympholiter-M (Cedarlane) and density centrifugation. For CFU-C assays, bone marrow cells (5×10^4), or PB MNCs (1×10^5 or 5×10^5) were plated in 35 mm dishes (Stem Cell Technologies) using methylcellulose supplemented with growth factors (MethoCult, Stem Cell Technologies), and colonies were blindly scored after seven and thirteen days, respectively, using an inverted microscope (Luttun et al. (2002), Nat. Med. 8:831-40). […] After five weeks of culture, cells were trypsinized, counted, plated in MethoCult, and CFU-Cs were scored after nine days. […] For CFU-S assays, lethal total body irradiation (9.0 to 9.5 Gy), and transplantation of mobilized PB MNCs (1 to 1.5×10^5) were performed in syngeneic recipients, survival was monitored or splenic colonies were blindly scored after twelve days using a dissection microscope. For bone marrow proliferation index, bone marrow cells from treated mice were plated in 96-well plates, CellTiter96 (Promega) was added, and repetitive colorimetric readings were performed at OD 490 nm. […]

HPCs in the BM = assay: CFU-Cs (HPCs) in the BM; format: in vivo, mouse; conditions: WT mice, after two days of treatment
Description: as §2

tPA = assay: In vitro clot lysis with BM plasma samples; format: in vivo, mouse; conditions: N=4
Text: Compared to WT or tPA^−/− mice, uPA^−/− mice had increased mortality and delayed hematopoietic recovery (FIG. 2, Panels b and c). […] Moreover, uPA deficiency reduced the number of BM HSCs (Sca1^+cKit^+) and HPCs (Sca1^+) after 5-FU. Thus, uPA is the responsible plasminogen activator, generating plasmin during 5-FU-induced stem cell mobilization. After G-CSF treatment, the levels of active tPA, but not uPA, increased in the BM plasma, when measured by casein zymography. […] To assess whether the specific up-regulation of tPA in response to G-CSF was functionally relevant, we determined whether tPA^−/− mice were capable of mobilizing stem/progenitor cells in response to G-CSF. […]
BM extracellular fluid (BM plasma) from mice was obtained as described previously (Petit et al. (2002), Nat. Immunol. 3:687-94). […] Murine sKitL and SDF1α protein levels were quantified using commercial available ELISA (R&D Systems, Abingdon, UK). Murine plasminogen, and murine and human suPAR were quantified by home-made ELISA (Heymans et al. (1999), Nat. Med. 5:1135-42; Sier et al. (2004), Thromb. Haemost. 91:403-11). […] MMP-2, MMP-9, and MMP-12 activities were measured using gelatin-zymography, uPA and MMP-3 activities were measured using casein-zymography, as described previously (Heymans et al. (1999), Nat. Med. 5:1135-42). […]

[3] = G-CSF plus drug for five days, compared to control vehicle
[4] = G-CSF in combination with agent for five days, compared to G-CSF alone

NC[C@H]1CC[C@H](C(=O)O)CC1 [exacyl, tranexamic acid]
reduction of G-CSF-induced mobilization of HPCs ([1]; WT mice, G-CSF plus drug for five days, compared to control vehicle): 55%
reduction of G-CSF-induced mobilization of HSCs [2, 3]: 49%
reduction of G-CSF-induced mobilization of WBCs (circulating WBCs; [3]): 37%

GM-CSF: recombinant human GM-CSF (R&D systems), positive control in chemotaxis assay
HPCs in transwell (BM MNCs (HPCs)): 1363±323

pertussis toxin
mobilization of HPCs ([1]; uPAR−/− mice, single i.v. bolus of 500 ng, after five days): efficiently mobilized

tenecteplase
enhanced mobilization of HPCs ([1]; WT mice, G-CSF in combination with agent for five days, compared to G-CSF alone): 65%
enhanced mobilization of HSCs [2, 4]: 155%
survival of lethally irradiated WT recipient mice after transplantation of mobilized cells (HSCs): significantly increased
enhanced mobilization of WBCs (circulating WBCs; [4]): 87%

B1: G-CSF: recombinant human G-CSF (Filgrastim, Amgen) (protein, chains of the INN, looked up)
chain: MTPLGPASSLPQSFLLKCLEQVRKIQGDGAALQEKLCATYKLCHPEELVLLGHSLGIPWAPLSSCPSQALQLAGCLSQLHSGLFLYQGLLQALEGISPELGPTLDTLQLDVADFATTIWQQMEELGMAPALQPTQGAMPAFASAFQRRAGGVLVASHLQSFLEVSYRVLRHLAQP
sKitL levels in the BM plasma (sKitL): not increased
reduction of the number of HSCs in the bone marrow (HSCs in the BM): 65%
BM proliferation index (percent of proliferating BM cells in control mice) (BM cells; Plg−/− mice): 73±8%
BM proliferation index (percent of proliferating BM cells in control mice) (BM cells; WT mice): 167±14%
increase of the number of HPCs in the bone marrow (HPCs in the BM): 44%
in vitro clot lysis, percentage of a positive standard (tPA; BM plasma of G-CSF-treated WT mice): 79±2%
in vitro clot lysis, percentage of a positive standard (tPA; BM plasma of G-CSF-treated tPA−/− mice): 58±2%
